Where two headings read alike, the source gives them in different places.
Experiments:
S. aureus 209P = experiment: Metal ion or food preservative added to growth medium, viable count; type: cell-based
Experimental: (§1) To a standard medium for counting viable bacteria described below, each metal ion with varied concentration was added. […] Then, the number of viable bacteria was counted with time in a common procedure.
(§2) Sample bacteria: S. aureus 209P as a representative of Gram-positive bacteria • E. coli 0-157 as a representative of Gram-negative bacteria
(§3) Standard medium for counting viable bacteria: yeast extract 2.5 g, peptone 5 g, glucose 1 g, agar 15 g, pH 7.2

E. coli O-157 [1] = experiment: as above; type: cell-based; details: metal ion in growth medium
Experimental: as §1, §2, §3

[2] = tested on: sample bacteria (S. aureus 209P, E. coli O-157); experiment: Death rate over time, food preservative in purified water pH 3.0
E. coli O-157 [3] = experiment: Metal ion or food preservative added to growth medium, viable count; type: cell-based; details: food preservative in growth medium
[4] = tested on: intestinal bacteria in feces; experiment: Sterilization effect on specimen: feces; details: Feces 1.5 × 10^11/g
[5] = tested on: pus mainly including antibiotic resistant Pseudomonas aeruginosa (MDRP); details: Pus (MDRP) 5 × 10^9/g
[6] = tested on: spores of Clostridium species; experiment: Spore decay time and decay rate in dried soil, anaerobic culture; type: cell-based; details: for Spore decay rate, Spores of Clostridium species: 1 g dried soil in 10 ml, anaerobic culture
Experimental: (§4) Sands in a sandbox in a park and riverside soil were collected and mixed. The mixture was dried with heated air at 80 to 90° C. for 6 hours. Then, 1 g of the dried mixture was added into water and immediately filtered with a filter. A part of the filtrate was applied onto a glass slide, and spores were stained in a common procedure. The number of stained spores was counted and the number of spores contained in 1 g of soil was determined. Simultaneously, the spores were aerobically (Bacillus species proliferated) and anaerobically (Clostridium species proliferated) cultured, and each ratio was determined.
(§5) Then, into 10 ml of the sample disinfectant, 1 g of the dried soil was added. Some of the mixture was collected with time, and cultured aerobically and anaerobically. The number of growing colonies was counted to determine the decay rate of the spores.

[7] = tested on: spores of Bacillus species; experiment: Spore decay time and decay rate in dried soil, aerobic culture; type: cell-based; details: for Spore decay rate, Spores of Bacillus species: 1 g dried soil in 10 ml, aerobic culture
Experimental: as §4, §5

[8] = tested on: viable bacteria in sputum; experiment: Sterilization effect on specimen: sputum; details: Sputum 2 × 10^9/g
[9] = tested on: pus mainly including antibiotic resistant MRSA; details: Pus (MRSA) 4 × 10^9/g
[10] = food preservative in growth medium

## O.O.O.O.O.O.O.O=S(=O)([O-])[O-].[Zn+2] [Zn^2+, ZnSO4•7H2O]
S. aureus 209P; metal ion in growth medium
  (a) Antiproliferative activity, concentration: 12~18 ppm
  (b) Bacteriostatic activity, concentration: 16~200 ppm
  (c) Bactericidal activity, concentration: 200 ppm>
  Acceleration of growth, concentration: 10 ppm<
E. coli O-157 [1]
  (a) Antiproliferative activity, concentration: 10~15 ppm
  (b) Bacteriostatic activity, concentration: 15~250 ppm
  (c) Bactericidal activity, concentration: 250 ppm>
  Acceleration of growth, concentration: 10 ppm<

## C/C=C/C=C/C(=O)[O-].[K+] [Potassium sorbate]
S. aureus 209P; [10]
  (a) Antiproliferative activity, concentration: 35~250 ppm
  (b) Bacteriostatic activity, concentration: 200 ppm>
[2]; 50 ppm, 5 min
  Death rate: 0
[2]; 50 ppm, 10 min
  Death rate: 0
[2]; 50 ppm, 15 min
  Death rate: 0
[2]; 50 ppm, 30 min
  Death rate: 2
[2]; 50 ppm, 60 min
  Death rate: 5
[2]; 50 ppm, 90 min
  Death rate: 8
[2]; 50 ppm, 120 min
  Death rate: 12
[2]; 200 ppm, 5 min
  Death rate: 0
[2]; 200 ppm, 10 min
  Death rate: 0
[2]; 200 ppm, 15 min
  Death rate: 0
[2]; 200 ppm, 30 min
  Death rate: 2
[2]; 200 ppm, 60 min
  Death rate: 6
[2]; 200 ppm, 90 min
  Death rate: 10
[2]; 200 ppm, 120 min
  Death rate: 15
[2]; 500 ppm, 5 min
  Death rate: 0
[2]; 500 ppm, 10 min
  Death rate: 0
[2]; 500 ppm, 15 min
  Death rate: 1
[2]; 500 ppm, 30 min
  Death rate: 3
[2]; 500 ppm, 60 min
  Death rate: 7
[2]; 500 ppm, 90 min
  Death rate: 12
[2]; 500 ppm, 120 min
  Death rate: 18
E. coli O-157 [3]
  (a) Antiproliferative activity, concentration: 30~250 ppm
  (b) Bacteriostatic activity, concentration: 250 ppm>

## O=[N+]([O-])[O-].[Ag+] [Ag^+, AgNO3]
E. coli O-157 [1]
  (a) Antiproliferative activity, concentration: 0.05~2 ppm
  (b) Bacteriostatic activity, concentration: 2~4 ppm
  (c) Bactericidal activity, concentration: 4 ppm>

## O=C(O)c1ccccc1 [Benzoic acid]
S. aureus 209P; [10]
  (a) Antiproliferative activity, concentration: 25~200 ppm
  (b) Bacteriostatic activity, concentration: 180 ppm>
[2]; 50 ppm, 5 min
  Death rate: 0
[2]; 50 ppm, 10 min
  Death rate: 0
[2]; 50 ppm, 15 min
  Death rate: 0
[2]; 50 ppm, 30 min
  Death rate: 1
[2]; 50 ppm, 60 min
  Death rate: 5
[2]; 50 ppm, 90 min
  Death rate: 10
[2]; 50 ppm, 120 min
  Death rate: 12
[2]; 200 ppm, 5 min
  Death rate: 0
[2]; 200 ppm, 10 min
  Death rate: 0
[2]; 200 ppm, 15 min
  Death rate: 0
[2]; 200 ppm, 30 min
  Death rate: 2
[2]; 200 ppm, 60 min
  Death rate: 7
[2]; 200 ppm, 90 min
  Death rate: 10
[2]; 200 ppm, 120 min
  Death rate: 12
[2]; 500 ppm, 5 min
  Death rate: 0
[2]; 500 ppm, 10 min
  Death rate: 0
[2]; 500 ppm, 15 min
  Death rate: 1
[2]; 500 ppm, 30 min
  Death rate: 3
[2]; 500 ppm, 60 min
  Death rate: 8
[2]; 500 ppm, 90 min
  Death rate: 12
[2]; 500 ppm, 120 min
  Death rate: 15
E. coli O-157 [3]
  (a) Antiproliferative activity, concentration: 25~200 ppm
  (b) Bacteriostatic activity, concentration: 180 ppm>

## OCl [Sodium hypochlorite, sodium hypochlorite]
[4]; 5 min after addition
  The number of viable bacteria in specimen: 1e+08 g⁻¹
[4]; 15 min after addition
  The number of viable bacteria in specimen: 8e+06 g⁻¹
[4]; 30 min after addition
  The number of viable bacteria in specimen: 8e+06 g⁻¹
[4]; 60 min after addition
  The number of viable bacteria in specimen: 1e+07 g⁻¹
[4]; 60 min after addition, listed as hypochlorite
  The number of viable bacteria in specimen: 1e+07 g⁻¹
[5]; 5 min after addition
  The number of viable bacteria in specimen: 2000 g⁻¹
[5]; 15 min after addition
  The number of viable bacteria in specimen: 1000 g⁻¹
[5]; 30 min after addition
  The number of viable bacteria in specimen: 200 g⁻¹
[5]; 60 min after addition
  The number of viable bacteria in specimen: 100 g⁻¹
[6]; 1 min contact
  Spore decay rate, Spores of Clostridium species: 0%
[6]; 5 min contact
  Spore decay rate, Spores of Clostridium species: 5%
[6]; 10 min contact
  Spore decay rate, Spores of Clostridium species: 20%
[6]; 30 min contact
  Spore decay rate, Spores of Clostridium species: 30%
[6]; 60 min contact
  Spore decay rate, Spores of Clostridium species: 100%
[6]; 60 minutes contact
  spores decayed: 100%
[6]; 120 min contact
  Spore decay rate, Spores of Clostridium species: 100%
[7]; 1 min contact
  Spore decay rate, Spores of Bacillus species: 0%
[7]; 5 min contact
  Spore decay rate, Spores of Bacillus species: 0%
[7]; 10 min contact
  Spore decay rate, Spores of Bacillus species: 10%
[7]; 30 min contact
  Spore decay rate, Spores of Bacillus species: 30%
[7]; 60 min contact
  Spore decay rate, Spores of Bacillus species: 100%
[7]; 60 minutes contact
  spores decayed: 100%
[7]; 120 min contact
  Spore decay rate, Spores of Bacillus species: 100%
[8]; 5 min after addition
  The number of viable bacteria in specimen: 20000 g⁻¹
[8]; 15 min after addition
  The number of viable bacteria in specimen: 10000 g⁻¹
[8]; 30 min after addition
  The number of viable bacteria in specimen: 10000 g⁻¹
[8]; 60 min after addition
  The number of viable bacteria in specimen: 5000 g⁻¹
[8]; 60 min after addition, listed as sodium hypochlorite
  The number of viable bacteria in specimen: 5000 g⁻¹
[9]; 5 min after addition
  The number of viable bacteria in specimen: 30000 g⁻¹
[9]; 15 min after addition
  The number of viable bacteria in specimen: 500 g⁻¹
[9]; 30 min after addition
  The number of viable bacteria in specimen: 100 g⁻¹
[9]; 60 min after addition
  The number of viable bacteria in specimen: 0 g⁻¹
